In publication PMC4298654, “In vivo formation of N-acyl-fumonisin B1” (Mycotoxin Research, 2014):

Key:
[1] = In vivo formation of NAFB1 and NAHFB1 in rat kidney and liver (HPLC-ESI-MS/MS); set-up: N-acyl-derivative in tissue sample, analysis a / N-acyl-derivative in tissue sample, analysis b / N-acyl-derivative in tissue sample, mean: unit not given here; conditions: 5 days
Source text: (§1) The study protocol was approved by the Institutional Animal Care and Use Committee, Richard B. Russell Agricultural Research Center, Athens, GA. Male Sprague–Dawley rats (Harlan Industries, Indianapolis, IN, USA), 7 weeks of age at receipt, were individually housed in stainless steel, wire mesh cages in an environmentally controlled room having a 12-h light/dark cycle. Food (2019 Global Rodent Diet, Teklad, Madison, WI, USA) and fresh tap water were provided ad libitum. After a 1 week acclimation period, the animals were randomly assigned to five groups (n = 2/group) having mean weights of 215 to 216 g (weight range of all animals, 211 to 220 g). For five consecutive days, they were observed, weighed, and given an intraperitoneal injection (ip) of 0 (vehicle), 0.5, 1.0, or 2.0 mg/kg body weight FB1 (provided by R. Eppley, US FDA), 1.0 mg/kg body weight HFB1 (positive control) (Voss et al. [2009]), or vehicle (0.9 % physiological saline). These doses corresponded to 0.69, 1.38, and 2.77 μmol FB1/kg body weight and 2.47 μmol/kg body weight HFB1 per day. In order to compare the effects of FB1 and HFB1, dosages will be expressed as molar concentrations and, on this basis, the high dose of FB1 is roughly equivalent to that of the positive control dose of HFB1. Dosing solutions were sterile filtered and administered at a volume rate of 10 ml/kg body weight. The animals were fasted overnight prior to administration of the final dose. The rats were euthanized (CO2 inhalation and exsanguination) 60 to 90 min following the final dose administration and examined by necropsy. The kidney and liver specimens were fixed in 10 % neutral buffered formalin, processed, and microscopically evaluated without knowledge of the animal’s identity or treatment group. Three representative liver and kidney specimens (100 mg each) were also collected, immediately frozen, and stored (−80 °C) until processed, at which time the tissues were thawed and homogenized in distilled/deionized water (1 ml water/100 mg tissue). The homogenates were lyophilized before they were shipped by overnight courier for the analysis of fumonisin metabolites and sphingolipids.
(§2) Lyophilized liver and kidney tissues (100 mg wet weight equivalents) were processed for the quantification of FB1, HFB1, NAFB1, NAHFB1, and sphingolipids. Preparation of the tissue samples was performed according to a previously published method (Harrer et al. [2013]). For the quantification of FB1 and HFB1, a d6-labeled derivative of FB1 (FB1-d6) was used as the internal standard. Synthetic derivatives with a heptadecanoic fatty acid (C17:0) residue were used as internal standards for the quantification of N-acyl-fumonisins and ceramides (N-C17:0-FB1, N-C17:0-HFB1, and N-C17:0-ceramide). The sphingoid bases and their phosphate derivatives were quantified using synthetic derivatives with a C17-acyl-backbone: sphingosine (C17:1), sphingosine-1-phosphate (C17:1), sphinganine (C17:0), sphinganine-1-phosphate (C17:0) as internal standards. The standards were dissolved in methanol:chloroform (2:1, v/v) and then mixed with the tissue samples. The samples spiked with internal standard were kept at room temperature for 30 min before being processed further. The internal standard-spiked samples were first extracted with ethyl acetate, isopropanol, and water (60:30:10, v/v/v) and a second time using methanol, chloroform, and water (60:30:10, v/v/v). The extracts were combined, the solvents removed by evaporation, and the dried samples stored at−80 °C till analyzed.
(§3) For the analysis, the samples were reconstituted in a mixture of water, methanol, and tetrahydrofurane (60:24:16, v/v/v). The NAFB1 and NAHFB1 derivatives having the following fatty acyl chain lengths were quantified by HPLC-MS/MS: C16:0, C18:0, C20:0, C22:0, C24:0, C26:0. Furthermore, we also quantified the unsaturated derivatives C24:1 and C26:1. The results are given as the sum of all N-acyl derivatives of FB1 or HFB1. […]

sphingolipid metabolism = assay: Sphingolipid levels in rat kidney and liver after ip FB1 or HFB1; type: in vivo; conditions: 5 days; for Sa/So ratio / sphinganine (Sa) / sphinganine-1-phosphate (Sa1P) / sphingosine (So) / sphingosine-1-phospate (So1P): dose High: 2.77 μmol FB1/kg or 2.47 μmol HFB1/kg body weight per day ip
Source text: as §1, §2

[2] = Tissue FB1 and HFB1 concentrations in rat kidney and liver (HPLC-ESI-MS/MS); type: in vivo; conditions: HFB1 2.47 μmol/kg body weight per day ip, 5 days
Source text: as §1, §2, §3

rat liver and kidney = assay: Histological examination of rat liver and kidney; type: in vivo; conditions: ip, 5 days; FB1 0.5, 1.0, 2.0 mg/kg or HFB1 1.0 mg/kg body weight per day; n = 2/group
Source text: The study protocol was approved by the Institutional Animal Care and Use Committee, Richard B. Russell Agricultural Research Center, Athens, GA. Male Sprague–Dawley rats (Harlan Industries, Indianapolis, IN, USA), 7 weeks of age at receipt, were individually housed in stainless steel, wire mesh cages in an environmentally controlled room having a 12-h light/dark cycle. Food (2019 Global Rodent Diet, Teklad, Madison, WI, USA) and fresh tap water were provided ad libitum. After a 1 week acclimation period, the animals were randomly assigned to five groups (n = 2/group) having mean weights of 215 to 216 g (weight range of all animals, 211 to 220 g). For five consecutive days, they were observed, weighed, and given an intraperitoneal injection (ip) of 0 (vehicle), 0.5, 1.0, or 2.0 mg/kg body weight FB1 (provided by R. Eppley, US FDA), 1.0 mg/kg body weight HFB1 (positive control) (Voss et al. [2009]), or vehicle (0.9 % physiological saline). […] In order to compare the effects of FB1 and HFB1, dosages will be expressed as molar concentrations and, on this basis, the high dose of FB1 is roughly equivalent to that of the positive control dose of HFB1. […] The kidney and liver specimens were fixed in 10 % neutral buffered formalin, processed, and microscopically evaluated without knowledge of the animal’s identity or treatment group. […]

[3] = Kidney, treatment FB1 0,5 mg/kg BW ip
[4] = Kidney, treatment FB1 1 mg/kg BW ip
[5] = Kidney, treatment FB1 2 mg/kg BW ip
[6] = Kidney, treatment HFB1 1 mg/kg BW ip
[7] = Liver, treatment FB1 0,5 mg/kg BW ip
[8] = Liver, treatment FB1 1 mg/kg BW ip
[9] = Liver, treatment FB1 2 mg/kg BW ip
[10] = Liver, treatment HFB1 1 mg/kg BW ip

SMILES | N-acyl-derivative in tissue sample, analysis a [1, 4] | N-acyl-derivative in tissue sample, analysis b [1, 4] | N-acyl-derivative in tissue sample, mean [1, 4] | N-acyl-derivative in tissue sample, analysis a [1, 5] | N-acyl-derivative in tissue sample, analysis b [1, 5] | N-acyl-derivative in tissue sample, mean [1, 5] | N-acyl-derivative in tissue sample, analysis a [1, 6] | N-acyl-derivative in tissue sample, analysis b [1, 6] | N-acyl-derivative in tissue sample, mean [1, 6] | N-acyl-derivative in tissue sample, analysis a [1, 7] | N-acyl-derivative in tissue sample, analysis b [1, 7] | N-acyl-derivative in tissue sample, mean [1, 7] | N-acyl-derivative in tissue sample, analysis a [1, 8] | N-acyl-derivative in tissue sample, analysis b [1, 8] | N-acyl-derivative in tissue sample, mean [1, 8] | N-acyl-derivative in tissue sample, analysis a [1, 9] | N-acyl-derivative in tissue sample, analysis b [1, 9] | N-acyl-derivative in tissue sample, mean [1, 9] | N-acyl-derivative in tissue sample, analysis a [1, 10] | N-acyl-derivative in tissue sample, analysis b [1, 10] | other results
CCCC[C@@H](C)[C@@H](O)[C@@H](O)C[C@@H](C)C[C@H](O)CCCC[C@@H](O)C[C@H](O)[C@H](C)N [HFB1, Hydrolyzed fumonisin B1, reference compound] |  |  |  |  |  |  |  |  |  |  |  |  |  |  |  |  |  |  |  |  | metabolites of the dosed mycotoxin found in the kidney ([1]; kidney, FB1 2.77 or HFB1 2.47 μmol/kg body weight per day ip): less than 0.5 nmol/g; levels of sphingoid bases and 1-phosphates (total sphingosine, total sphinganine) in tissues compared to vehicle-treated controls (sphingolipid metabolism; kidney and liver, ip): did not cause any significant changes; Sa/So ratio (sphingolipid metabolism; kidney): 0.3 ± 0.0; sphinganine (Sa) (sphingolipid metabolism; kidney): 3 ± 0.7 nmol/g; sphinganine-1-phosphate (Sa1P) (sphingolipid metabolism; kidney): 0.6 ± 0.4 nmol/g; sphingosine (So) (sphingolipid metabolism; kidney): 9 ± 2.8 nmol/g; sphingosine-1-phospate (So1P) (sphingolipid metabolism; kidney): 0.4 ± 0.1 nmol/g; Sa/So ratio (sphingolipid metabolism; liver): 0.5 ± 0.4; sphinganine (Sa) (sphingolipid metabolism; liver): 2 ± 1 nmol/g; sphinganine-1-phosphate (Sa1P) (sphingolipid metabolism; liver): 0.1 ± 0.1 nmol/g; sphingosine (So) (sphingolipid metabolism; liver): 3 ± 0.2 nmol/g; sphingosine-1-phospate (So1P) (sphingolipid metabolism; liver): 0.2 ± 0.0 nmol/g; HFB1 molar concentration in the liver relative to the kidney [2]: about sixfold higher; HFB1 molar concentration in tissue ([2]; kidney): 0.27 nmol/g; unmetabolized HFB1 accumulated in tissue, % of the total dose (TD) ([2]; kidney): < 0.1 % TD; total amount of HFB1 species in tissue, % of the total dose (TD) ([2]; kidney, HFB1 plus N-acyl metabolites): 0.03 % TD; HFB1 molar concentration in tissue ([2]; liver): 1.78 nmol/g; unmetabolized HFB1 accumulated in tissue, % of the total dose (TD) ([2]; liver): 0.7 % TD; microscopic appearance of kidney and liver (rat liver and kidney): could not be differentiated from that of tissues from the vehicle control group
CCCCCCCCCCCCCCCCCCCCCC(=O)N[C@@H](C)[C@@H](O)C[C@H](O)CCCC[C@@H](O)C[C@H](C)C[C@H](O)[C@H](O)[C@H](C)CCCC [HFB1C22:0] | 0,0 | 0,0 | 0,0 | 0,0 | 0,0 | 0,0 | 1,5 | 4,3 | 2,9 | 0,0 | 0,0 | 0,0 | 0,0 | 0,0 | 0,0 | 0,0 | 0,0 | 0,0 | 61,0 | 45,8 | N-acyl-derivative in tissue sample, analysis a [1, 3]: 0,0; N-acyl-derivative in tissue sample, analysis b [1, 3]: 0,0; N-acyl-derivative in tissue sample, mean [1, 3]: 0,0; N-acyl-derivative in tissue sample, mean [1, 10]: 53,4
CCCCCCCCCCCCCCCCCCCCCCCC(=O)N[C@@H](C)[C@@H](O)C[C@H](O)CCCC[C@@H](O)C[C@H](C)C[C@H](O)[C@H](O)[C@H](C)CCCC [HFB1C24:0] | 0,0 | 0,0 | 0,0 | 0,0 | 0,0 | 0,0 | 3,0 | 2,7 | 2,9 | 0,0 | 0,0 | 0,0 | 0,0 | 0,0 | 0,0 | 0,0 | 0,0 | 0,0 | 25,0 | 23,5 | N-acyl-derivative in tissue sample, mean [1, 10]: 24,2
CCCCCCCC/C=C\CCCCCCCCCCCCCC(=O)N[C@@H](C)[C@@H](O)C[C@H](O)CCCC[C@@H](O)C[C@H](C)C[C@H](O)[C@H](O)[C@H](C)CCCC [HFB1C24:1] | 0,4 | 0,0 | 0,2 | 0,1 | 0,0 | 0,0 | 7,9 | 10,8 | 9,3 | 0,0 | 0,0 | 0,0 | 0,0 | 0,1 | 0,1 | 0,4 | 0,0 | 0,2 | 156,0 | 140,5 | N-acyl-derivative in tissue sample, analysis a [1, 3]: 0,0; N-acyl-derivative in tissue sample, analysis b [1, 3]: 0,0; N-acyl-derivative in tissue sample, mean [1, 3]: 0,0; N-acyl-derivative in tissue sample, mean [1, 10]: 148,3
